Values after ≈ are worked out from the molar mass of the structure shown. Active and inactive are the calls of the source. The calls are words filed in the database; no cut-off is given here.

Data on 18 compounds can be found in ChEMBL document CHEMBL3045399, “A novel series of homoallylic amines as potential antimicrobials” (2012).

For experiment [1], the system named is Bacillus subtilis. Kind of experiment: Antimicrobial activity against Bacillus subtilis after 16 hr by serial dilution method. In kind it is functional.
Experiment [2] deals with Staphylococcus aureus. In words: Antimicrobial activity against Staphylococcus aureus after 16 hr by serial dilution method. In kind it is functional.
Experiment [3] deals with Escherichia coli. In words: Antimicrobial activity against Escherichia coli after 16 hr by serial dilution method. In kind it is functional.
The test system of experiment [4] is Pseudomonas aeruginosa. In words: Antimicrobial activity against Pseudomonas aeruginosa after 16 hr by serial dilution method. The format is functional.
Experiment [5] has as its system Pseudomonas aeruginosa. Kind of experiment: Antimicrobial activity against Pseudomonas aeruginosa at 1.6125 to 50 ug/ml after 16 hr by serial dilution method. The format is functional, organism-based.
For experiment [6], the system named is Bacillus subtilis. Kind of experiment: Antimicrobial activity against Bacillus subtilis at 1.6125 to 50 ug/ml after 16 hr by serial dilution method. The format is functional, organism-based.
Experiment [7] has as its system Escherichia coli. Kind of experiment: Antimicrobial activity against Escherichia coli at 1.6125 to 50 ug/ml after 16 hr by serial dilution method. The format is functional, organism-based.
Experiment [8] deals with Staphylococcus aureus. In words: Antimicrobial activity against Staphylococcus aureus at 1.6125 to 50 ug/ml after 16 hr by serial dilution method. In kind it is functional, organism-based.

What is called MIC is the lowest concentration found to suppress growth. For `C=CCOc1ccccc1C(CC=C)Nc1ccc(Oc2ccc(Cl)cc2)cc1` (configuration not stated), the MIC with Bacillus subtilis [1] worked out at 3.12 µg/mL (≈ 7.7 µM); in the experiment with Staphylococcus aureus [2], 3.12 µg/mL (≈ 7.7 µM); against Escherichia coli [3] it was 6.25 µg/mL (≈ 15.4 µM); in the experiment on Pseudomonas aeruginosa [4], 25 µg/mL (≈ 61.6 µM).
For `C=CCC(Nc1cccc2ccccc12)c1cc2ccccc2o1` (configuration not stated), the minimal inhibitory concentration (MIC) with Bacillus subtilis [1] was determined as 1.61 µg/mL (≈ 5.15 µM); in the experiment on Staphylococcus aureus [2], 1.61 µg/mL (≈ 5.15 µM); against Escherichia coli [3], 25 µg/mL (≈ 79.8 µM). Besides, the outcome in the experiment on Pseudomonas aeruginosa [5] was inactive.
Take `C=CCC(Nc1cc(F)c(F)cc1F)c1ccc(F)cc1F` (configuration not stated): the MIC against Bacillus subtilis [1], against Staphylococcus aureus [2], with Escherichia coli [3] and in the experiment on Pseudomonas aeruginosa [4] was 1.61 µg/mL (≈ 5.15 µM) each time.
Regarding `C=CCC(Nc1ccc(N2CCOCC2)cc1)C1CCCCC1` (configuration not stated), the MIC in the experiment on Bacillus subtilis [1] was 6.25 µg/mL (≈ 19.9 µM); in the experiment with Staphylococcus aureus [2] it was 6.25 µg/mL (≈ 19.9 µM); against Escherichia coli [3], 6.25 µg/mL (≈ 19.9 µM); in the experiment with Pseudomonas aeruginosa [4] it was 25 µg/mL (≈ 79.5 µM).
Turning to `C=CCC(Nc1ccc(C(C)(C)C)cc1)c1ccc(F)cc1F` (configuration not stated), the MIC in the experiment on Bacillus subtilis [1], in the experiment with Staphylococcus aureus [2], in the experiment on Escherichia coli [3] and against Pseudomonas aeruginosa [4] was 3.12 µg/mL (≈ 9.91 µM) each time.
Regarding `C=CCC(NCc1ccc(F)c(F)c1)c1cc2ccccc2o1` (configuration not stated), the MIC against Bacillus subtilis [1] was 3.12 µg/mL (≈ 9.97 µM); in the experiment on Staphylococcus aureus [2], 1.61 µg/mL (≈ 5.15 µM); against Escherichia coli [3], 3.12 µg/mL (≈ 9.97 µM); in the experiment on Pseudomonas aeruginosa [4], 3.12 µg/mL (≈ 9.97 µM).
With `C=CCC(Nc1cc(C)ccc1C)C1CCCCC1` (configuration not stated), the MIC came out at 12.5 µg/mL (≈ 48.6 µM) with Bacillus subtilis [1], 6.25 µg/mL (≈ 24.3 µM) against Staphylococcus aureus [2], 12.5 µg/mL (≈ 48.6 µM) with Escherichia coli [3] and 12.5 µg/mL (≈ 48.6 µM) with Pseudomonas aeruginosa [4].
Take `C=CCC(Nc1ccc(C#N)cc1)c1ccsc1` (configuration not stated): the MIC against Bacillus subtilis [1] was found to be 6.25 µg/mL (≈ 24.6 µM); in the experiment on Staphylococcus aureus [2], 6.25 µg/mL (≈ 24.6 µM); in the experiment with Escherichia coli [3], 3.12 µg/mL (≈ 12.3 µM); in the experiment on Pseudomonas aeruginosa [4] it was 6.25 µg/mL (≈ 24.6 µM).
As to `C=CCC(Nc1ccc(Cl)cc1F)c1c(F)cccc1F` (configuration not stated), the MIC against Bacillus subtilis [1] is 1.61 µg/mL (≈ 5.17 µM); in the experiment with Staphylococcus aureus [2], 3.12 µg/mL (≈ 10 µM); in the experiment on Escherichia coli [3], 1.61 µg/mL (≈ 5.17 µM); with Pseudomonas aeruginosa [4] it was 1.61 µg/mL (≈ 5.17 µM).
`C=CCC(Nc1ccc(F)cc1)c1cccc(OCC)c1` (configuration not stated): the minimum inhibitory concentration (MIC) against Bacillus subtilis [1], in the experiment with Staphylococcus aureus [2], in the experiment with Escherichia coli [3] and against Pseudomonas aeruginosa [4] was 3.12 µg/mL (≈ 11 µM) each time.
Take `C=CCC(Nc1cccc(F)c1)c1cc(OC)ccc1F` (configuration not stated): the MIC with Bacillus subtilis [1], in the experiment on Staphylococcus aureus [2], in the experiment on Escherichia coli [3] and in the experiment on Pseudomonas aeruginosa [4] was 1.61 µg/mL (≈ 5.58 µM) in each case.
On to `C=CCC(Nc1cccc2ncsc12)c1cn(C(C)=O)c2ccccc12` (configuration not stated), for which the minimal inhibitory concentration (MIC) in the experiment on Bacillus subtilis [1], against Staphylococcus aureus [2], against Escherichia coli [3] and in the experiment with Pseudomonas aeruginosa [4] was 12.5 µg/mL (≈ 34.6 µM) in each case.
Regarding `C=CCC(Nc1cccc2ccccc12)c1ccccc1` (configuration not stated), the MIC in the experiment with Bacillus subtilis [1], in the experiment with Staphylococcus aureus [2], in the experiment with Escherichia coli [3] and in the experiment with Pseudomonas aeruginosa [4] was 25 µg/mL (≈ 91.4 µM) throughout.
In the case of `C=CCC(Nc1ccc(F)cc1F)c1ccc(F)cc1F` (configuration not stated), the minimum inhibitory concentration (MIC) with Bacillus subtilis [1], against Staphylococcus aureus [2], in the experiment with Escherichia coli [3] and against Pseudomonas aeruginosa [4] was 1.61 µg/mL (≈ 5.46 µM) in each case.
Consider `CO/N=C(\C(=O)N[C@@H]1C(=O)N2C(C(=O)O)=C(CSc3nc(=O)c(O)nn3C)CS[C@H]12)c1csc(N)n1` [CEFTRIAXONE], for which the MIC was found to be 1.61 µg/mL (≈ 2.91 µM) against Bacillus subtilis [1], 3.12 µg/mL (≈ 5.63 µM) in the experiment with Staphylococcus aureus [2], 1.61 µg/mL (≈ 2.91 µM) against Escherichia coli [3] and 1.61 µg/mL (≈ 2.91 µM) with Pseudomonas aeruginosa [4].
For `C=CCC(Nc1ccc(C(C)(C)C)cc1)C1CC1` (configuration not stated), the outcome in the experiment on Bacillus subtilis [6], with Escherichia coli [7], in the experiment with Pseudomonas aeruginosa [5] and in the experiment with Staphylococcus aureus [8] was inactive.
`C=CCC(Nc1ccc(Oc2ccc(Cl)cc2)cc1)c1ccc(-c2ccccc2Cl)o1` (configuration not stated): the minimum inhibitory concentration (MIC) against Bacillus subtilis [1], against Staphylococcus aureus [2], in the experiment with Escherichia coli [3] and in the experiment on Pseudomonas aeruginosa [4] was 3.12 µg/mL (≈ 6.94 µM) in each case.
As for `C=CCC(Nc1ccc(F)c(C(F)(F)F)c1)C1CC1` (configuration not stated), the minimal inhibitory concentration (MIC) against Bacillus subtilis [1] and against Staphylococcus aureus [2] was 1.61 µg/mL (≈ 5.9 µM) in each case. The result with Escherichia coli [7] and in the experiment with Pseudomonas aeruginosa [5] was inactive.
